Results as given in US20110028758A1, “Trans-cinnamic acid derivative, its preparation mathod and the use” (priority 2007, published 2011).
≈ marks a conversion by molar mass, not a printed value. Entries after “also recorded” stand apart in the source; their conditions may differ. Where two headings read alike, the source gives them in different places.

Assays:
[1] = system: human hepatoma BEL-7402 cells; experiment: MTT anti-tumor test in vitro, BEL-7402; assay type: cell-based; settings: Homo sapiens, Bel-7402, 48 h, Bel- (BEL-7402)
From the text: (§1) A complete culture medium is used for diluting the above original solution into corresponding concentrations for later use.
(§2) Human cervical carcinoma Hela cells, human hepatoma BEL-7402 cells, mucinous Human epidermoid A549 lung cancer cells, human breast cancer MCF-7/S cells, human glioma U251 cells, and human normal embryonic kidney HEK-293 cells are purchased from USA, American Type Culture Collection (ATCC). All the tumor cells are used the DMEM medium (containing 10% FBS, 100 U/ml penicillin and 100 μg/ml streptomycin) for culturing and subculturing, and HEK-293 cells are using RPMI1640 medium (10% FBS, 100 U/ml penicillin, and 100 μg/ml streptomycin) for culturing and subculturing, wherein the culture condition is in a 5% CO2 incubator at 37° C.
(§3) Subculture six kinds of cells, which has a logarithmic growing period, adherent rate about 80%, and in good condition, such as human cervical carcinoma Hela cells, human hepatoma BEL-7402 cells, mucinous Human epidermoid A549 lung cancer cells, human breast cancer MCF-7/S cells, human glioma U251 cells, and human normal embryonic kidney HEK-293 cells. Discard the culture medium, rinse 1-2 times with PBS to remove serum, add 1 ml 0.25% Trypsin-0.01% EDTA (37° C. incubation) to digest for 1-2 minutes, add FBS culture medium to terminate the above digestion, centrifuge at a speed below 800 r/min for 2-3 minutes and discard the supernatant, re-suspended cells in 10% FBS medium, tack the cell suspension liquid for cell counting, adjust the density of the above liquid to 1×10^5/ml, then inoculate to a 96-holes plates (100 μl/hole), and then incubate in 5% CO2 incubator at 37° C. overnight. The next day add above cells to different concentrations of I-a, I-b, I-c and I-d, 100 μl/hole (its final concentration is respectively 30, 60, 120, 240, 480 μg/ml); meanwhile, set up the blank control group (0 μM), and establish 3 holes. Continuing the cultural process, discard the culture medium after 48 hours that the drug has been effected, add 100 μl PBS of 0.5 mg/ml MTT (PH 7.2) into each holes, after 4 hours culture, remove the culture medium by adherent cells express flipping method, add 100 μl of DMSO to each holes, oscillate it by micro-oscillation device for 5 minutes, and measure the OD value at 490 nm wavelength. Repeat the above experiment three times to get an average value. Calculate the inhibition rate (IR %) of the tumor cell proliferation in vitro from different concentrations of I-a, I-b, I-c, I-d by the following formula:
(§4) IR %=(1−ODsampale/ODcontrol)×100%
(§5) Use SPSS11.5 software to calculate the half inhibitory concentration IC50 of I-a, I-b, I-c and I-d. The results are shown in Table 2 to illustrate IC50 values (unit: μg/ml) of the four compounds.

[2] = system: human normal embryonic kidney HEK-293 cells; experiment: MTT test on normal cells, HEK-293; assay type: cell-based; settings: for IC50: Homo sapiens; for inhibitory effect on HEK-293 cells: at concentrations having 50% inhibitory effect on the tumor cells
From the text: as §1, §2
Subculture six kinds of cells, which has a logarithmic growing period, adherent rate about 80%, and in good condition, such as human cervical carcinoma Hela cells, human hepatoma BEL-7402 cells, mucinous Human epidermoid A549 lung cancer cells, human breast cancer MCF-7/S cells, human glioma U251 cells, and human normal embryonic kidney HEK-293 cells. […] Repeat the above experiment three times to get an average value.
as §4

[3] = single tail vein administration 350 mg/kg; for death / survival in acute toxicity test: 14 days observation, 350 mg/kg
Experimental: After the drug delivery, continuously observe the mice responses for 4 hours; after all, observe the mice twice a day (one is in the morning, and the other is in the afternoon) for 14 days, wherein the observation includes the appearance, behavior, secretions, excreta of the mice etc., and recording all the death situation, poisoning symptoms, the starting time and ending time of toxic reactions of the mice, severity, duration time of toxic, and to see if it is reversible reaction etc., sent it to the pathology examination if necessary, weight the mice before and after the drug delivered day of 3, 7, 10, and 14 days. After finishing the observation process, execute all of the mice, and anatomize the dead bodies of mice.

[4] = system: mucinous Human epidermoid A549 lung cancer cells; experiment: MTT anti-tumor test in vitro, A549; assay type: cell-based; settings: Homo sapiens, A549, 48 h
From the text: as §1, §2, §3, §4, §5

[5] = system: mice ascites hepatoma cell strain H22; experiment: Anti-tumor test in vivo, mice transplanted tumor of liver cancer H22; design: species or system Kunming mice
Experimental: The mice ascites hepatoma cell strain H22 is purchased from the Experimental Center of Zhongshan University.
Recovery the mice ascites hepatoma cell strain H22, put the cell suspension liquid into a centrifugal tube and use the 4° C. saline to wash the suspension liquid twice, then centrifuge to discard the supernatant, add appropriate 4° C. saline to dilute the suspension liquid, count cells with 0.2% trypan blue, adjust the density to 10^7 cell/ml, according to 0.2 (ml/mice) intraperitoneal inoculation H22 cell suspension liquid.
After ten days of the intraperitoneal inoculation, the cervical vertebra is dislocated. Disinfect the mice abdominal skin, and suck the milky ascites with a sterile syringe, then adjust the concentration of tumor cells to 1×10^7 cell/ml with injection used saline. Disinfect the right armpit skin of the Kunming mice with alcohol swab, subcutaneously vaccinate the cell suspension liquid 0.2 ml, conventional feeding. […] Totally there are 180 tumor-bearing mice.
The 180 tumor-bearing mice are divided into 18 groups by the weigh of the mice, wherein each group has 10 mice (half male and half female). The drug delivery methods of each group are shown in Table 3 to illustrate eighteen groups of mice drug delivery situation.
Group 1 is the model group, and the mice of group 1 are given the tail vein saline injection daily started on the second day of the tumor-bearing for 10 days.
Group 2 is the cyclophosphamide (CTX) group, and the mice of group 2 are only given the cyclophosphamide in the intraperitoneal of the mice on the second day of the tumor-bearing.
Group 3 to 18 groups are given the four compounds respectively, wherein the groups delivered 25 mg/kg drug are tail vein low-dose group, wherein the groups delivered 50 mg/kg drugs are the tail vein medium-dose group, wherein the groups delivered 100 mg/kg drugs are the tail vein high-dose group, wherein the groups delivered 200 mg/kg drugs are the oral enteral group. These mice from group 3 to 18 start the drug delivery on the second day of the tumor-bearing, and delivered once a day for 10 sequent days.
The above drug deliveries are 20 ml/kg.
After finishing the drug delivery process, weight the mice, then kill the mice by pulling off the neck, and anatomy to get the tumor tissue of the mice on the next day of finishing the drug delivery process, and then weight the anatomized tumor by electronic weighing scales to calculate the inhibition rate.

[6] = system: human cervical carcinoma Hela cells; experiment: MTT anti-tumor test in vitro, Hela; assay type: cell-based; settings: Homo sapiens, HeLa, 48 h
From the text: as §1, §2, §3, §4, §5

[7] = average of three experiments ± SD
[8] = HEK293, 48 h, HEK- (HEK-293), average of three experiments ± SD, MTT, 48 hours, read-out: IC50 value
[9] = HEK293, 48 h, HEK- (HEK-293), experiment 2, MTT, 48 hours, read-out: IC50 value
[10] = HEK293, 48 h, HEK- (HEK-293), experiment 3, MTT, 48 hours, read-out: IC50 value
[11] = HEK293, text, read-out: HEK-293 cells IC50 values
[12] = A549, average of three experiments ± SD, MTT, 48 hours, read-out: IC50 value
[13] = A549, experiment 2, MTT, 48 hours, read-out: IC50 value
[14] = A549, experiment 3, MTT, 48 hours, read-out: IC50 value
[15] = at 48 hours, read-out: A549 cell proliferation IC50 values
[16] = i.g. 200 mg·(kg·d)^−1, once a day for 10 days
[17] = i.v. 25 mg·(kg·d)^−1, once a day for 10 days
[18] = i.v. 25 mg·(kg·d)^−1, once a day for 10 days (low-dose group)
[19] = i.v. 50 mg·(kg·d)^−1, once a day for 10 days
[20] = i.v. 50 mg·(kg·d)^−1, once a day for 10 days (medium-dose group)
[21] = i.v. 100 mg·(kg·d)^−1, once a day for 10 days
[22] = Hela, average of three experiments ± SD, MTT, 48 hours, read-out: IC50 value
[23] = Hela, experiment 2, MTT, 48 hours, read-out: IC50 value
[24] = Hela, experiment 3, MTT, 48 hours, read-out: IC50 value
[25] = read-out: HeLa cell proliferation IC50 values
[26] = HEK293, 48 h, HEK- (HEK-293), experiment 1, MTT, 48 hours, read-out: IC50 value
[27] = A549, experiment 1, MTT, 48 hours, read-out: IC50 value
[28] = Hela, experiment 1, MTT, 48 hours, read-out: IC50 value

Row | Structure (SMILES) | IC50 [1, 7] | IC50 ([1]; experiment 2) | IC50 ([1]; experiment 3) | IC50 [2, 8] | IC50 [2, 9] | IC50 [2, 10] | drug reaction after administration [3] | death / survival in acute toxicity test [3] | IC50 [4, 12] | IC50 [4, 13] | IC50 [4, 14] | IC50 [4, 15] | Tumor weight/g [5, 16] | Tumor weight/g [5, 17] | IR/% (inhibition rate) [5, 18] | Tumor weight/g [5, 19] | Tumor weight/g [5, 21] | IC50 [6, 22] | IC50 [6, 23] | IC50 [6, 24] | further results
1 | COc1ccc(/C=C/C(=O)O)c(O)c1CC=C(C)C [I-a, (E)-2-hydroxy-4-methoxy-3-isopentenyl-cinnamic acid] | 249 ± 17.9 µg/mL (≈ 950 µM) | 237 µg/mL (≈ 904 µM) | 269 µg/mL (≈ 1030 µM) | 404 ± 9.2 µg/mL (≈ 1540 µM) | 399 µg/mL (≈ 1520 µM) | 414 µg/mL (≈ 1580 µM) | abnormally excited at first, and then become in an inhibit state | All the mice are survived; also recorded: no toxic deaths | 118 ± 10.6 µg/mL (≈ 451 µM) | 118 µg/mL (≈ 450 µM) | 107 µg/mL (≈ 408 µM) | 118 ± 10.6 µg/mL (≈ 451 µM) | 0.907 ± 0.424 g | 1.398 ± 0.355 g | 8.8% | 1.047 ± 0.342 g | 0.775 ± 0.381 g | 103 ± 8.48 µg/mL (≈ 391 µM) | 115 µg/mL (≈ 438 µM) | 96 µg/mL (≈ 366 µM) | IC50 [2, 11]: 404 ± 9.2 µg/mL (≈ 1540 µM); inhibitory effect on HEK-293 cells [2]: unobvious; IR/% (inhibition rate) [5, 20]: 31.7%; IC50 [6, 25]: 103 ± 8.48 µg/mL (≈ 391 µM)
2 | COc1ccc(/C=C/C(=O)O)c(OC)c1CC=C(C)C [I-c, (E)-2,4-dimethoxy-3-isopentenyl-cinnamic acid] | 313 ± 11.7 µg/mL (≈ 1130 µM) | 300 µg/mL (≈ 1090 µM) | 323 µg/mL (≈ 1170 µM) | 369 ± 13.6 µg/mL (≈ 1340 µM) | 367 µg/mL (≈ 1330 µM) | 356 µg/mL (≈ 1290 µM) | abnormally excited at first, and then become in an inhibit state | All the mice are survived; also recorded: no toxic deaths | 158 ± 5.66 µg/mL (≈ 572 µM) | 162 µg/mL (≈ 586 µM) | 159 µg/mL (≈ 575 µM) | 158 ± 5.66 µg/mL (≈ 572 µM) | 0.866 ± 0.489 g | 1.322 ± 0.278 g | 13.7% | 0.875 ± 0.379 g | 0.782 ± 0.368 g | 96.2 ± 1.25 µg/mL (≈ 348 µM) | 85.6 µg/mL (≈ 310 µM) | 97 µg/mL (≈ 351 µM) | IC50 ([1]; experiment 1): 315 µg/mL (≈ 1140 µM); IC50 [2, 26]: 383 µg/mL (≈ 1390 µM); IC50 [2, 11]: 369 ± 13.6 µg/mL (≈ 1340 µM); inhibitory effect on HEK-293 cells [2]: unobvious; IC50 [4, 27]: 151 µg/mL (≈ 546 µM); IC50 [6, 28]: 95 µg/mL (≈ 344 µM); IC50 [6, 25]: 96.2 ± 1.25 µg/mL (≈ 348 µM)
3 | COc1ccc(/C=C\C(=O)O)c(OC)c1CC=C(C)C [I-b, (Z)-2,4-dimethoxy-3-isopentenyl-cinnamic acid] | 346 ± 10.1 µg/mL (≈ 1250 µM) | 357 µg/mL (≈ 1290 µM) | 338 µg/mL (≈ 1220 µM) | 365 ± 6.14 µg/mL (≈ 1320 µM) | 371 µg/mL (≈ 1340 µM) | 366 µg/mL (≈ 1320 µM) | abnormally excited at first, and then become in an inhibit state | All the mice are survived; also recorded: no toxic deaths | 218 ± 12.6 µg/mL (≈ 788 µM) | 216 µg/mL (≈ 782 µM) | 205 µg/mL (≈ 742 µM) | 218 ± 12.6 µg/mL (≈ 788 µM) | 1.108 ± 0.364 g | 1.367 ± 0.524 g | 10.8% | 1.152 ± 0.47 g | 0.911 ± 0.417 g | 324 ± 11.6 µg/mL (≈ 1170 µM) | 310 µg/mL (≈ 1120 µM) | 328 µg/mL (≈ 1190 µM) | IC50 ([1]; experiment 1): 343 µg/mL (≈ 1240 µM); IC50 [2, 26]: 358 µg/mL (≈ 1300 µM); IC50 [4, 27]: 230 µg/mL (≈ 832 µM); IR/% (inhibition rate) [5, 20]: 24.8%; IC50 [6, 28]: 331 µg/mL (≈ 1200 µM); IC50 [6, 25]: 324 ± 11.6 µg/mL (≈ 1170 µM)
